ChEMBL document CHEMBL1201862, “PubChem BioAssay data set” (2004)
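96-well plates; 48 h exposure; 5 concentrations. Endpoints by linear interpolation between flanking doses. Not reached: highest tested concentration assigned. GI50 = concentration required for 50% inhibition of growth.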 The source made the active and inactive calls. Rule as the data show it: active = GI50 up to about 1.1 µM and inactive = higher.

Tests used:
Experiment in all cases: NCI anticancer screen, dose series, 48 h
786-0 = tested on: 786-0
A498 = tested on: A498
A549 = tested on: A549
ACHN = tested on: ACHN
BT-549 = tested on: BT-549
CAKI-1 = tested on: CAKI-1
CCRF-CEM = tested on: CCRF-CEM
COLO 205 = tested on: COLO 205
DU-145 = tested on: DU-145
EKVX = tested on: EKVX
HCC 2998 = tested on: HCC 2998
HCT-116 = tested on: HCT-116
HCT-15 = tested on: HCT-15
HL-60 = tested on: HL-60
HOP-62 = tested on: HOP-62
HOP-92 = tested on: HOP-92
HT-29 = tested on: HT-29
Hs-578T = tested on: Hs-578T
IGROV-1 = tested on: IGROV-1
K562 = tested on: K562
KM12 = tested on: KM12
LOX IMVI = tested on: LOX IMVI
M14 = tested on: M14
MCF7 = tested on: MCF7
MDA-MB-231 = tested on: MDA-MB-231
MDA-MB-435 = tested on: MDA-MB-435
MDA-N = tested on: MDA-N
MOLT-4 = tested on: MOLT-4
Malme-3M = tested on: Malme-3M
NCI-H226 = tested on: NCI-H226
NCI-H23 = tested on: NCI-H23
NCI-H460 = tested on: NCI-H460
NCI-H522 = tested on: NCI-H522
NCI/ADR-RES = tested on: NCI/ADR-RES
OVCAR-3 = tested on: OVCAR-3
OVCAR-4 = tested on: OVCAR-4
OVCAR-8 = tested on: OVCAR-8
PC-3 = tested on: PC-3
RPMI-8226 = tested on: RPMI-8226
RXF 393 = tested on: RXF 393
SF-268 = tested on: SF-268
SF-295 = tested on: SF-295
SF-539 = tested on: SF-539
SK-MEL-28 = tested on: SK-MEL-28
SK-MEL-5 = tested on: SK-MEL-5
SK-OV-3 = tested on: SK-OV-3
SN12C = tested on: SN12C
SNB-19 = tested on: SNB-19
SR = tested on: SR
SW-620 = tested on: SW-620
T47D = tested on: T47D
TK-10 = tested on: TK-10
U-251 = tested on: U-251
UACC-257 = tested on: UACC-257
UACC-62 = tested on: UACC-62
UO-31 = tested on: UO-31
OVCAR-5 = tested on: OVCAR-5
SK-MEL-2 = tested on: SK-MEL-2
SNB-75 = tested on: SNB-75

**Q.** `CCOC(=O)N1CCN(c2c(C)nc(C)nc2O)CC1` was tested. Which GI50 (786-0) did it give?
**A.** > 100 µM (inactive)

**Q.** What about the GI50 (A498) of the same compound?
**A.** > 100 µM (inactive)

**Q.** And the GI50 (A549)?
**A.** > 100 µM (inactive)

**Q.** And the GI50 (ACHN)?
**A.** > 100 µM (inactive)

**Q.** What about the GI50 (BT-549) of the same compound?
**A.** > 100 µM (inactive)

**Q.** What about the GI50 (CAKI-1) of the same compound?
**A.** > 100 µM (inactive)

**Q.** What about the GI50 (CCRF-CEM) of the same compound?
**A.** > 100 µM (inactive)

**Q.** What about the GI50 (COLO 205) of the same compound?
**A.** > 100 µM (inactive)

**Q.** And the GI50 (DU-145)?
**A.** > 100 µM (inactive)

**Q.** And the GI50 (EKVX)?
**A.** > 100 µM (inactive)

**Q.** And the GI50 (HCC 2998)?
**A.** > 100 µM (inactive)

**Q.** What about the GI50 (HCT-116) of the same compound?
**A.** > 100 µM (inactive)

**Q.** And the GI50 (HCT-15)?
**A.** > 100 µM

**Q.** What about the GI50 (HL-60) of the same compound?
**A.** > 100 µM (inactive)

**Q.** And the GI50 (HOP-62)?
**A.** > 100 µM (inactive)

**Q.** What about the GI50 (HOP-92) of the same compound?
**A.** > 100 µM (inactive)

**Q.** And the GI50 (HT-29)?
**A.** > 100 µM (inactive)

**Q.** What about the GI50 (Hs-578T) of the same compound?
**A.** > 100 µM (inactive)

**Q.** What about the GI50 (IGROV-1) of the same compound?
**A.** > 100 µM (inactive)

**Q.** And the GI50 (K562)?
**A.** > 100 µM (inactive)

**Q.** And the GI50 (KM12)?
**A.** > 100 µM (inactive)

**Q.** What about the GI50 (LOX IMVI) of the same compound?
**A.** > 100 µM (inactive)

**Q.** What about the GI50 (M14) of the same compound?
**A.** > 100 µM (inactive)

**Q.** What about the GI50 (MCF7) of the same compound?
**A.** > 100 µM (inactive)

**Q.** And the GI50 (MDA-MB-231)?
**A.** > 100 µM (inactive)

**Q.** What about the GI50 (MDA-MB-435) of the same compound?
**A.** > 100 µM (inactive)

**Q.** What about the GI50 (MDA-N) of the same compound?
**A.** > 100 µM (inactive)

**Q.** What about the GI50 (MOLT-4) of the same compound?
**A.** > 100 µM (inactive)

**Q.** What about the GI50 (Malme-3M) of the same compound?
**A.** > 100 µM (inactive)

**Q.** And the GI50 (NCI-H226)?
**A.** > 100 µM (inactive)

**Q.** What about the GI50 (NCI-H23) of the same compound?
**A.** > 100 µM (inactive)

**Q.** And the GI50 (NCI-H460)?
**A.** > 100 µM (inactive)

**Q.** And the GI50 (NCI-H522)?
**A.** > 100 µM (inactive)

**Q.** And the GI50 (NCI/ADR-RES)?
**A.** > 100 µM (inactive)

**Q.** And the GI50 (OVCAR-3)?
**A.** > 100 µM (inactive)

**Q.** And the GI50 (OVCAR-4)?
**A.** > 100 µM (inactive)

**Q.** What about the GI50 (OVCAR-8) of the same compound?
**A.** > 100 µM (inactive)

**Q.** What about the GI50 (PC-3) of the same compound?
**A.** > 100 µM (inactive)

**Q.** What about the GI50 (RPMI-8226) of the same compound?
**A.** > 100 µM (inactive)

**Q.** What about the GI50 (RXF 393) of the same compound?
**A.** > 100 µM (inactive)

**Q.** What about the GI50 (SF-268) of the same compound?
**A.** > 100 µM (inactive)

**Q.** What about the GI50 (SF-295) of the same compound?
**A.** > 100 µM (inactive)

**Q.** What about the GI50 (SF-539) of the same compound?
**A.** > 100 µM (inactive)

**Q.** What about the GI50 (SK-MEL-28) of the same compound?
**A.** > 100 µM (inactive)

**Q.** What about the GI50 (SK-MEL-5) of the same compound?
**A.** > 100 µM (inactive)

**Q.** And the GI50 (SK-OV-3)?
**A.** > 100 µM (inactive)

**Q.** And the GI50 (SN12C)?
**A.** > 100 µM (inactive)

**Q.** And the GI50 (SNB-19)?
**A.** > 100 µM (inactive)

**Q.** And the GI50 (SR)?
**A.** > 100 µM (inactive)

**Q.** What about the GI50 (SW-620) of the same compound?
**A.** > 100 µM (inactive)

**Q.** What about the GI50 (T47D) of the same compound?
**A.** > 100 µM (inactive)

**Q.** What about the GI50 (TK-10) of the same compound?
**A.** > 100 µM (inactive)

**Q.** What about the GI50 (U-251) of the same compound?
**A.** > 100 µM (inactive)

**Q.** And the GI50 (UACC-257)?
**A.** > 100 µM (inactive)

**Q.** And the GI50 (UACC-62)?
**A.** > 100 µM (inactive)

**Q.** And the GI50 (UO-31)?
**A.** > 100 µM (inactive)

**Q.** What does the source list for `CCOC(=O)/C=C/[C@H](O)[C@@H](O)/C=C/C(=O)OCC`?
**A.** GI50 (786-0): 33.8 µM (inactive); GI50 (A498): 42.7 µM (inactive); GI50 (A549): 40.7 µM (inactive); GI50 (ACHN): 23.8 µM (inactive); GI50 (BT-549): 35.3 µM (inactive); GI50 (CAKI-1): 23.1 µM (inactive); GI50 (CCRF-CEM): 8.34 µM (inactive); GI50 (COLO 205): 32.4 µM (inactive); GI50 (DU-145): 37.4 µM (inactive); GI50 (EKVX): 24.7 µM (inactive); GI50 (HCC 2998): 36.1 µM (inactive); GI50 (HCT-116): 18.2 µM (inactive); GI50 (HCT-15): 23 µM; GI50 (HOP-62): 21.3 µM (inactive); GI50 (HOP-92): 16.8 µM (inactive); GI50 (HT-29): 15.4 µM (inactive); GI50 (Hs-578T): 34.8 µM (inactive); GI50 (IGROV-1): 30.7 µM (inactive); GI50 (K562): 10.6 µM (inactive); GI50 (KM12): 18.9 µM (inactive); GI50 (LOX IMVI): 23.9 µM (inactive); GI50 (MCF7): 19.6 µM (inactive); GI50 (MDA-MB-231): 41.3 µM (inactive); GI50 (MDA-MB-435): 29.9 µM (inactive); GI50 (MDA-N): 29.6 µM (inactive); GI50 (MOLT-4): 14.9 µM (inactive); GI50 (Malme-3M): 21.6 µM (inactive); GI50 (NCI-H226): > 100 µM (inactive); GI50 (NCI-H23): 33.8 µM (inactive); GI50 (NCI-H460): 19.1 µM (inactive); GI50 (NCI-H522): 20.7 µM (inactive); GI50 (NCI/ADR-RES): 29.9 µM (inactive); GI50 (OVCAR-3): 20.1 µM (inactive); GI50 (OVCAR-4): 31.8 µM (inactive); GI50 (OVCAR-5): 51.2 µM (inactive); GI50 (OVCAR-8): 19.6 µM (inactive); GI50 (PC-3): 23.3 µM (inactive); GI50 (RPMI-8226): 21.2 µM (inactive); GI50 (RXF 393): 20.2 µM (inactive); GI50 (SF-268): 34.2 µM (inactive); GI50 (SF-295): 31.7 µM (inactive); GI50 (SF-539): 33.5 µM (inactive); GI50 (SK-MEL-28): 18.2 µM (inactive); GI50 (SK-MEL-2): 30.8 µM (inactive); GI50 (SK-MEL-5): 22.6 µM (inactive); GI50 (SK-OV-3): 62.2 µM (inactive); GI50 (SN12C): 26.6 µM (inactive); GI50 (SNB-19): 22 µM (inactive); GI50 (SNB-75): 62.7 µM (inactive); GI50 (SR): 8.04 µM (inactive); GI50 (SW-620): 17 µM (inactive); GI50 (T47D): 34.1 µM (inactive); GI50 (TK-10): 55.8 µM (inactive); GI50 (U-251): 31 µM (inactive); GI50 (UACC-257): 45.8 µM (inactive); GI50 (UACC-62): 21.3 µM (inactive); GI50 (UO-31): 61.8 µM (inactive)
